# Laboratory results taken from US20060122104A1, “Methods for in vitro expansion and transdifferentiation of human pancreatic acinar cells into insulin-producing cells” (priority 2002, published 2006).
# Test system: primary human pancreatic cells
# Assay: Attachment and growth of primary pancreatic cells on ECM-coated surfaces (cell counting, MTS metabolic activity assay)
# Type: cell-based
# Conditions: 10^5 cells/cm^2, grown 8 days; FIG. 4A
# Protocol: The attachment of primary human pancreatic cells was evaluated by counting the number of attached cells vs. the number of cells initially seeded on a panel of ECM surfaces comprised of Collagen I (1 μg/cm^2), Fibronectin (3 μg/cm^2), Laminin (2 μg/cm^2), Vitronectin (1 μg/cm^2), Matrigel (1 μg/cm^2), Human ECM (1 μg/cm^2), or Poly-D -Lysine (3 μg/cm^2). In one condition, a mixture of Collagen IV, Laminin, and Fibronectin was utilized. […] Excess ECM solution was then removed and surfaces were rinsed twice in water. Just before seeding cells, the water was aspirated, then cells were seeded onto the ECM surface at a density of 1×10^5 cells/cm^2 in growth medium (PCM) composed of DMEM:HamsF12 mixture (1:1) with 4 mM glutamine, 1×ITS supplement (GIBCO 51500-056), 10% Fetal Calf Serum (Inactivated, Qualified, GIBC 26140-079), and 10 ng/ml Epidermal Growth Factor (EGF) (BD 4001). Cells were seeded onto tissue-culture polystyrene surface as a control. […] The metabolic activity of cells subjected to the various conditions was determined by an MTS assay. Viable cells were measured using the MTS assay (Promega CellTiter 96 Aqueous One Solution Cell Proliferation Assay), a colorimetric method for determining the number of viable cells in proliferation or cytotoxicity. […]
substance,measurement,value
Fibronectin,cell attachment and expansion on coated surface,suitable surface for cell attachment and expansion
Laminin,cell attachment and expansion on coated surface,suitable surface for cell attachment and expansion
